Results on 28 molecules are retold here after patent US20250289789A1, “REVERSIBLE LYSINE COVALENT MODIFIERS OF CDK2 AND USES THEREOF” (Terremoto Biosciences, Inc., priority 2023, published 2025).

What all share (assay type): cell-based
Experiment [1] has as its target T1, CDK2-NanoLuc fusion with CCNE1 in 293T or 293 cells (Homo sapiens, UniProt P24941).
T1 construct: host or cells: 293T (ATCC CRL-3216) or 293 (ATCC CRL-1573)
The experiment in a line: NanoBRET Target Engagement (TE) Intracellular Kinase Assay, CDK2/CCNE1. To be noted: NanoBRET TE intracellular kinase assay, 2-hour incubation, read-out: NanoBRET-CDK2/E1 IC50. On the technique in general: BRET reads energy transfer from a luciferase to a nearby fluorophore.

The target in experiment [2] is T2, CDK1-NanoLuc fusion with CCNB1 in 293T or 293 cells (Homo sapiens, UniProt P06493).
T2 construct: host or cells: 293T (ATCC CRL-3216) or 293 (ATCC CRL-1573)
T2 sequence (P06493 whole entry, the tested form may be a part): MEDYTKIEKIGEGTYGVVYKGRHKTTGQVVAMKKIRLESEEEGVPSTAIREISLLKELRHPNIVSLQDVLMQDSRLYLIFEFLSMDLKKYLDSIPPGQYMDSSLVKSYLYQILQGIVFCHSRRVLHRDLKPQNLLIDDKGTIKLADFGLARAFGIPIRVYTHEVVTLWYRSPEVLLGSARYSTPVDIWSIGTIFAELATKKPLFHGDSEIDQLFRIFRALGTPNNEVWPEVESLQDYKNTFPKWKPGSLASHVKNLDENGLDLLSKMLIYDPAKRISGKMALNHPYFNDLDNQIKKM
T2 sequence (P14635 whole entry partner, the tested form may be a part): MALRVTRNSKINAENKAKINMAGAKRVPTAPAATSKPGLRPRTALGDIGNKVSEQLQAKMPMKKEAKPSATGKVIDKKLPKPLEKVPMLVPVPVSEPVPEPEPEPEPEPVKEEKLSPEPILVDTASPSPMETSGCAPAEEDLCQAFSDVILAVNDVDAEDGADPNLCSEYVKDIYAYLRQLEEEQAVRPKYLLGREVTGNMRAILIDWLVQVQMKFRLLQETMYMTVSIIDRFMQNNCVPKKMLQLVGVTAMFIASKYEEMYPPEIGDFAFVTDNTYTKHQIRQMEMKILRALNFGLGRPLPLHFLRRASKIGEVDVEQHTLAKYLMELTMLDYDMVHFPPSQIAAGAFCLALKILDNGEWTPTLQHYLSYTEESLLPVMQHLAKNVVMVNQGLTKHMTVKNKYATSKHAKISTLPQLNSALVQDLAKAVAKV
The experiment in a line: NanoBRET Target Engagement (TE) Intracellular Kinase Assay, CDK1/CCNB1. To be noted: NanoBRET TE intracellular kinase assay, 2-hour incubation, read-out: NanoBRET-CDK1/B1 IC50. In short, it runs like this:
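293T or 293 cells co-transfected with CDK1-NanoLuc and CCNB1 vectors, incubated 24 h, then exposed to NanoBRET Tracer K-10 plus compound for 2 h at 37° C. BRET ratio (610/450 nm) normalized to DMSO; IC50 from four-parameter logistic fit.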

In experiment [3] the target is T3, CDK4-NanoLuc fusion with CCND1 in 293T or 293 cells (Homo sapiens, UniProt P11802).
T3 construct: host or cells: 293T (ATCC CRL-3216) or 293 (ATCC CRL-1573)
T3 sequence (P11802 whole entry, the tested form may be a part): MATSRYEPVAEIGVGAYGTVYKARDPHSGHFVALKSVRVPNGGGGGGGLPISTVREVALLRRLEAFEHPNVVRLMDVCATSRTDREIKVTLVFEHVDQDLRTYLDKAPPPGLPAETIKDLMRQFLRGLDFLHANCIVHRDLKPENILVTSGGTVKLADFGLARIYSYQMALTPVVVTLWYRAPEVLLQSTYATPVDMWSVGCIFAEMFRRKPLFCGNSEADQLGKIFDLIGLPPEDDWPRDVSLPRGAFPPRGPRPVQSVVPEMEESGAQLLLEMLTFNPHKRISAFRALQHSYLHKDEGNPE
T3 sequence (P24385 whole entry partner, the tested form may be a part): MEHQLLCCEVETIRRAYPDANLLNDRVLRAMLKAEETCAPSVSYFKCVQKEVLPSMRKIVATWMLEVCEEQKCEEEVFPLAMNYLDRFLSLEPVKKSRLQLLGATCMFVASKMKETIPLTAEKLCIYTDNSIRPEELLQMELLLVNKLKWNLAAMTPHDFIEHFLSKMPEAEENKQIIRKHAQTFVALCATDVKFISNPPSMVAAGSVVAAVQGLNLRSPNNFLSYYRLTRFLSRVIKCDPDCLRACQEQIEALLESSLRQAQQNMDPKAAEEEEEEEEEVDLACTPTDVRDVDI
The experiment in a line: NanoBRET Target Engagement (TE) Intracellular Kinase Assay, CDK4/CCND1. The note with it: NanoBRET TE intracellular kinase assay, 2-hour incubation, read-out: NanoBRET-CDK4/D1 IC50.

Experiment [4] deals with Phospho-Rb Ser807/811 in OVCAR3 cells. Put plainly: OVCAR3 Phospho-Rb Ser807/811 HTRF assay. The note with it: OVCAR3 cells, Phospho-Rb Ser807/811 HTRF, 1 hour incubation, read-out: pRb-OVCAR3 IC50. On the procedure:
Cells were trypsinized and resuspended in 1 mM hydroxyurea (Sigma; H8627), 90% RPMI and 10% fetal bovine serum. […] Dose response curve normalized to DMSO control was plotted using four-parameter logistic model for IC50 calculation.
For orientation: In TR-FRET formats the signal depends on donor and acceptor labels being close together.

SMILES strings stand for the structures. Read-outs that look alike come from different tables or passages of the source. Some results are limits rather than exact numbers.

Consider `C#C[C@@H]1CCCN1C(=O)O[C@@H]1CC[C@H](c2cc(NC(=O)COc3cc(OC)cc(O)c3C=O)n[nH]2)C1` [Compound 222], for which the IC50 in experiment [1] worked out at 3.84 nM; in experiment [2], 7.61 nM; in experiment [3], 2830 nM; in experiment [4] (Homo sapiens, OVCAR-3, 1 h), 63.7 nM.
In the case of `COc1cc(O)c(C=O)c(OCC(=O)Nc2cc([C@H]3C[C@@H](OC(=O)NC(C)C)C3)[nH]n2)c1` [Compound 223], the IC50 in experiment [1] is 4.13 nM; in experiment [2], 13.1 nM; in experiment [3], > 10000 nM; in experiment [4], 65.6 nM.
Consider `COc1cc(O)c(C=O)c(OCC(=O)Nc2cc([C@H]3CC[C@@H](OC(=O)N4CCCO4)C3)[nH]n2)c1` [Compound 224], for which the IC50 is 2.64 nM in experiment [1]; 28.9 nM in experiment [2]; > 10000 nM in experiment [3]; 93.6 nM in experiment [4] (Homo sapiens, OVCAR-3, 1 h).
Consider `CCCN(C)C(=O)O[C@@H]1CC[C@H](c2cc(NC(=O)COc3cc(OC)cc(O)c3C=O)n[nH]2)C1` [Compound 225], for which the IC50 in experiment [1] was 2.49 nM; in experiment [2] it was 5.09 nM; in experiment [3], 2600 nM; in experiment [4] (Homo sapiens, OVCAR-3, 1 h), 18.7 nM.
The like results for `COc1cc(O)c(C=O)c(OCC(=O)Nc2cc([C@H]3CC[C@@H](OC(=O)N4CC5CC(C5)C4)C3)[nH]n2)c1` [Compound 226] were, in that order, 2.45 nM, 9.17 nM, 3060 nM and 63.7 nM.
Taken in the same sequence, the figures for `COc1cc(OC)c(C=O)c(OCC(=O)Nc2cc([C@H]3CC[C@@H](OC(=O)N4CCC4(C)C)C3)[nH]n2)c1` [Compound 227] were 1.73 nM, 0.61 nM, 1290 nM and 18.1 nM.
The like results for `COc1cc(O)c(C=O)c(OCC(=O)Nc2cc([C@H]3CC[C@@H](OC(=O)N4CC5CC4C5)C3)[nH]n2)c1` [Compound 228] were, in that order, 2.27 nM, 4.25 nM, 4170 nM and 34.4 nM.
`COc1cc(O)c(C=O)c(OCC(=O)Nc2cc([C@H]3CC[C@@H](OC(=O)N4C5CCC4CC5)C3)[nH]n2)c1` [Compound 229]: the IC50 came to 1.75 nM in experiment [1]; 1.97 nM in experiment [2]; 1900 nM in experiment [3]; 28.8 nM in experiment [4] (Homo sapiens, OVCAR-3, 1 h).
Regarding `COc1cc(O)c(C=O)c(OCC(=O)Nc2cc([C@H]3CC[C@@H](OC(=O)N4CCOCC4)C3)[nH]n2)c1` [Compound 230], the IC50 in experiment [1] was 2.85 nM; in experiment [2], 21 nM; in experiment [3], > 10000 nM; in experiment [4] (Homo sapiens, OVCAR-3, 1 h), 57.8 nM.
Taken in the same sequence, the figures for `COc1cc(O)c(C=O)c(OCC(=O)Nc2cc([C@H]3CC[C@@H](OC(=O)N4C5COCC4C5)C3)[nH]n2)c1` [Compound 231, (1R,3S)-3-{5-[2-(2-formyl-3-hydroxy-5-methoxyphenoxy)acetamido]-2H-pyrazol-3-yl}cyclopentyl 3-oxa-6-azabicyclo[3.1.1]heptane-6-carboxylate] were 3.2 nM, < 2.64 nM, 1430 nM and 18.5 nM.
On to `COc1cc(O)c(C=O)c(OCC(=O)Nc2cc([C@H]3CC[C@@H](OC(=O)N4CCCC45CC5)C3)[nH]n2)c1` [Compound 232], for which the IC50 in experiment [1] is 2.18 nM; in experiment [2], 4.84 nM; in experiment [3], 2300 nM; in experiment [4] (Homo sapiens, OVCAR-3, 1 h) it was 40.2 nM.
On to `COc1cc(O)c(C=O)c(OCC(=O)Nc2cc([C@H]3CC[C@@H](OC(=O)N4CC[C@H](F)C4)C3)[nH]n2)c1` [Compound 233], for which the IC50 in experiment [1] worked out at 2.47 nM; in experiment [2] it was 2.19 nM; in experiment [3] it was 2690 nM; in experiment [4] (Homo sapiens, OVCAR-3, 1 h), 22.1 nM.
The like results for `COc1cc(O)c(C=O)c(OCC(=O)Nc2cc([C@H]3CC[C@@H](OC(=O)N4CC5CC(C4)O5)C3)[nH]n2)c1` [Compound 235] were, in that order, 7.6 nM, 48.5 nM, > 10000 nM and 121 nM.
Taken in the same sequence, the figures for `COc1cc(O)c(C=O)c(OCC(=O)Nc2cc([C@H]3CC[C@@H](OC(=O)N4CC[C@@H]5C[C@@H]54)C3)[nH]n2)c1` [Compound 236] were 1.9 nM, 12.8 nM, 4250 nM and 32.2 nM.
The like results for `COc1cc(O)c(C=O)c(OCC(=O)Nc2cc([C@H]3CC[C@@H](OC(=O)N4CC5CC5C4)C3)[nH]n2)c1` (stereo partly shown) [Compound 237] were, in that order, 1.79 nM, 11.6 nM, 4960 nM and 55.7 nM.
`COc1cc(O)c(C=O)c(OCC(=O)Nc2cc([C@H]3CC[C@@H](OC(=O)N4CC[C@H](C)C4)C3)[nH]n2)c1` [Compound 238]: the IC50 was 1.64 nM in experiment [1]; 9.82 nM in experiment [2]; 4100 nM in experiment [3]; 32.8 nM in experiment [4] (Homo sapiens, OVCAR-3, 1 h).
Taken in the same sequence, the figures for `COc1cc(O)c(C=O)c(OCC(=O)Nc2cc([C@H]3CC[C@@H](OC(=O)N4CCC4(C)C)C3)[nH]n2)c1` [Compound 239, (1R,3S)-3-(3-(2-(2-formyl-3-hydroxy-5-methoxyphenoxy)acetamido)-1H-pyrazol-5-yl)cyclopentyl 2,2-dimethylazetidine-1-carboxylate] were 1.89 nM, 2.14 nM, 846 nM and 13.1 nM.
The like results for `COc1cc(O)c(C=O)c(OCC(=O)Nc2cc([C@H]3CC[C@@H](OC(=O)N4CC[C@@H](F)C4)C3)[nH]n2)c1` [Compound 240] were, in that order, 1.54 nM, 7.4 nM, 2800 nM and 22.1 nM.
`COc1cc(O)c(C=O)c(OCC(=O)Nc2cc([C@@H]3CCC(OC(=O)N4CCCC4)C3)[nH]n2)c1` (stereo partly shown) [Compound 241]: the IC50 was determined as 3.05 nM in experiment [1]; 22.9 nM in experiment [2]; 3850 nM in experiment [3]; 77.6 nM in experiment [4] (Homo sapiens, OVCAR-3, 1 h).
Taken in the same sequence, the figures for `COc1cc(O)c(C=O)c(OCC(=O)Nc2cc([C@H]3CC[C@@H](OC(=O)N4CC[C@H](OC)C4)C3)[nH]n2)c1` [Compound 242] were 5.05 nM, 13.1 nM, > 10000 nM and 66.9 nM.
The like results for `COc1cc(O)c(C=O)c(OCC(=O)Nc2cc([C@H]3CC[C@@H](OC(=O)N4CCCC4(C)C)C3)[nH]n2)c1` [Compound 243] were, in that order, 2.23 nM, 2.41 nM, 484 nM and 17.6 nM.
Taken in the same sequence, the figures for `COc1cc(O)c(C=O)c(OCC(=O)Nc2cc([C@H]3CC[C@@H](OC(=O)N(C)C(C)C)C3)[nH]n2)c1` [Compound 244, (1R,3S)-3-{5-[2-(2-formyl-3-hydroxy-5-methoxyphenoxy)acetamido]-2H-pyrazol-3-yl}cyclopentyl N-isopropyl-N-methylcarbamate] were 1.42 nM, 4.17 nM, 1320 nM and 21.2 nM.
As for `COc1cc(O)c(C=O)c(OCC(=O)Nc2cc([C@H]3CC[C@@H](OC(=O)N4CCC[C@@H]4C)C3)[nH]n2)c1` [Compound 245], the IC50 in experiment [1] was determined as 3.12 nM; in experiment [2], 3.95 nM; in experiment [3], 723 nM; in experiment [4] (Homo sapiens, OVCAR-3, 1 h), 25.4 nM.
Turning to `COc1cc(O)c(C=O)c(OCC(=O)Nc2cc([C@H]3CC[C@@H](OC(=O)N4CCC(F)(F)C4)C3)[nH]n2)c1` [Compound 246], the IC50 in experiment [1] is 2.78 nM; in experiment [2], 9.45 nM; in experiment [3] it was 6110 nM; in experiment [4] (Homo sapiens, OVCAR-3, 1 h), 33 nM.
Turning to `COc1cc(O)c(C=O)c(OCC(=O)Nc2cc([C@@H]3CC[C@H](OC(=O)NC(C)C)C3)[nH]n2)c1` [Compound 247], the IC50 in experiment [1] was found to be 15.8 nM; in experiment [2], 19.4 nM; in experiment [3], 7210 nM; in experiment [4] (Homo sapiens, OVCAR-3, 1 h), 101 nM.
Taken in the same sequence, the figures for `CC(C)NC(=O)O[C@@H]1CC[C@H](c2cc(NC(=O)COc3cc(F)cc(O)c3C=O)n[nH]2)C1` [Compound 248] were 20.2 nM, 106 nM, 575 nM and 1950 nM.
As for `COc1cc(O)c(C=O)c(OCC(=O)Nc2cc([C@H]3CC[C@@H](OC(=O)NC45CC(C4)C5)C3)[nH]n2)c1` [Compound 249, (1R,3S)-3-{5-[2-(2-formyl-3-hydroxy-5-methoxyphenoxy)acetamido]-2H-pyrazol-3-yl}cyclopentyl N-{bicyclo[1.1.1]pentan-1-yl}carbamate], the IC50 amounted to 1.5 nM in experiment [1]; 4.5 nM in experiment [2]; 1190 nM in experiment [3]; 26.6 nM in experiment [4] (Homo sapiens, OVCAR-3, 1 h).
Consider `CC(C)NC(=O)O[C@@H]1CC[C@H](c2cc(NC(=O)COc3cc(OC(C)C)cc(O)c3C=O)n[nH]2)C1` [Compound 250], for which the IC50 in experiment [1] was found to be 1.86 nM; in experiment [2], 37.3 nM; in experiment [3], 9240 nM; in experiment [4] (Homo sapiens, OVCAR-3, 1 h), 65.8 nM.
